The text below walks through data of patent US5523403A, “Tropone-substituted phenyloxazolidinone antibacterial agents” (The Upjohn Company, priority 1995, dated 1996).

In brackets after ≈: the same amount, converted by molar mass.

Test [1] has as its system Streptococcus pyogenes UC ® 152. Description: in vitro antibacterial activity, Minimum Inhibitory Concentration, Streptococcus pyogenes. The conditions noted are these: Streptococcus pyogenes, UC152, read-out: Minimum Inhibitory Concentration.
The subject of test [2] is Staphylococcus aureus UC ® 9213. Description: in vitro antibacterial activity, Minimum Inhibitory Concentration, Staphylococcus aureus. The conditions noted are these: Staphylococcus aureus, UC9213, read-out: Minimum Inhibitory Concentration.

Consider `CC(=O)NCC1CN(c2ccc(-c3ccc(N4CC=CC4)c(=O)cc3)cc2)C(=O)O1` (racemic) [Compound 32, (±)-N-[[3-[4-[4-(2,5dihydro-1H--pyrrol-1-yl)-5-oxo-1,3,6-cycloheptatrien-1-yl]phenyl]-2-oxo-5-oxazolidinyl]methyl]-acetamide], for which the MIC in test [1] stood at 4 mg/L (≈ 9.87 µM); in test [2], 32 mg/L (≈ 78.9 µM).

With `C=CCNc1ccc(-c2ccc(N3CC(CNC(C)=O)OC3=O)cc2)ccc1=O` (racemic) [Compound 8, (±)-N-[[3-[4-[4-(2-propenylamino)5-oxo-1,3,6-cycloheptatrien-1-yl]phenyl]-2-oxo-5-oxazolidinyl]methyl]-acetamide], the MIC was determined as 0.5 mg/L (≈ 1.27 µM) in test [1] and 2 mg/L (≈ 5.08 µM) in test [2].

As for `COc1ccc(-c2ccc(N3CC(CNC(C)=O)OC3=O)cc2F)ccc1=O` (racemic) [Compound 16, (±)-N-[[3-[3-fluoro-4-(4-methoxy-5-oxo-1,3,6-cycloheptatrien-1-yl)phenyl]-2-oxo-5-oxazolidinyl]methyl]-acetamide], the MIC in test [1] stood at 0.25 mg/L (≈ 0.647 µM); in test [2], 1 mg/L (≈ 2.59 µM).

`CC(=O)NCC1CN(c2ccc(-c3ccc(NCc4ccccc4)c(=O)cc3)cc2)C(=O)O1` (racemic) [Compound 3, (±)-Acetamide, N-[[2-oxo-3-[4-[5-oxo-4-[(phenylmethyl)amino]-1,3,6-cycloheptatrien-1-yl]phenyl]-5-oxazolidinyl]methyl]]: the results for the MIC in test [1] and in test [2] were 4 mg/L (≈ 9.02 µM) and greater than 64 mg/L, respectively.

For the molecule `CCN(CC)c1ccc(-c2ccc(N3CC(CNC(C)=O)OC3=O)cc2)ccc1=O` (racemic) [Compound 2, (±)-N[[3-[4-(4-diethylamino-5-oxo-1,3,6-cycloheptatrien-1-yl)phenyl]-2-oxo-5-oxazolidinyl]methyl]-acetamide], the MIC came out at 1 mg/L (≈ 2.44 µM) in test [1] and 4 mg/L (≈ 9.77 µM) in test [2].

With `CCCCNc1ccc(-c2ccc(N3CC(CNC(C)=O)OC3=O)cc2)ccc1=O` (racemic) [Compound 13, (±)-N-[[3-[4-(4-butylamino-5-oxo-1,3,6-cycloheptatrien-1-yl)phenyl]-2-oxo-5-oxazolidinyl]methyl]-acetamide], the MIC worked out at 0.5 mg/L (≈ 1.22 µM) in test [1] and 2 mg/L (≈ 4.88 µM) in test [2].

For `CC(=O)NCC1CN(c2ccc(-c3ccc(N4CCN(C)CC4)c(=O)cc3)cc2)C(=O)O1` (racemic) [Compound 10, (±)-N-[[3-[4-[4-(4-methyl-1-piperazinyl)-5-oxo-1,3,6-cycloheptatrien-1-yl]phenyl]-2-oxo-5-oxazolidinyl]methyl]-acetamide], the figures for the MIC in test [1] and in test [2] were 0.12 mg/L (≈ 0.275 µM) and 2 mg/L (≈ 4.58 µM), respectively.
